Data taken from patent US20030004162A1, “Use of glycogen phosphorylase inhibitors” (priority 2000, published 2003).

Row | melting point | Structure (SMILES)
1 | 108 to 110 °C | O=C(N[C@@H](Cc1ccccc1)C(=O)N1CCOCC1)c1cc2cc(Cl)sc2[nH]1 [Example 19, 2-Chloro-6H-thieno[2,3-b]pyrrole-5-carboxylic acid [(1S)-benzyl-2-morpholin-4-yl-2-oxo-ethyl]-amide]
2 | 173 to 175 °C | CCN1C(=O)C(C(=O)Nc2cccc(C(=O)Nc3ccccc3)c2)c2cc(C(C)=O)ccc21 (stereo not drawn) [Example 1, 5-Acetyl-1-ethyl-2-oxo-2,3-dihydro-1H-indole-3-carboxylic acid (3-phenylcarbamoyl-phenyl)-amide]

Further lines, the compound ahead of its results:

Row | Structure (SMILES) | melting point
3 | CC(=O)c1ccc2c(c1)C(C(=O)Nc1cccc(C(=O)Nc3ccccc3)c1)C(=O)N2CC(F)(F)F (stereo not drawn) [Example 16, 5-Acetyl-2-oxo-1-(2,2,2-trifluoro-ethyl)-2,3-dihydro-1H-indole-3-carboxylic acid (3-phenylcarbamoyl-phenyl)-amide] | 197 to 203 °C
4 | CC(=O)c1ccc2c(c1)C(C(=O)Nc1cccc(C(=O)Nc3ccccc3)c1)C(=O)N2C (stereo not drawn) [Example 12, 5-Acetyl-1-methyl-2-oxo-2,3-dihydro-1H-indole-3-carboxylic acid (3-phenylcarbamoyl-phenyl)-amide] | 178 to 179 °C
5 | CCN1C(=O)C(C(=O)Nc2cccc(C(=O)Nc3ccc(I)cc3)c2)c2cc(C(C)=O)ccc21 (stereo not drawn) [Example 9, 5-Acetyl-1-ethyl-2-oxo-2,3-dihydro-1H-indole-3-carboxylic acid [3-(4-iodo-phenylcarbamoyl)-phenyl]-amide] | 205 to 210 °C
6 | CCC(=O)c1ccc2c(c1)C(C(=O)Nc1cccc(C(=O)Nc3ccccc3)c1)C(=O)N2CC (stereo not drawn) [Example 14, 1-Ethyl-2-oxo-5-propionyl-2,3-dihydro-1H-indole-3-carboxylic acid (3-phenylcarbamoyl-phenyl)-amide] | 179 to 180 °C
